Data published in article PMC8699473, “An Easily Expandable Multi-Drug LC-MS Assay for the Simultaneous Quantification of 57 Oral Antitumor Drugs in Human Plasma” (Cancers, 2021).

Test: Short-term stability in spiked pooled human plasma (bench-top, 4 °C, 56 °C)

Structure (SMILES)	Short-time stability (1h, 56°C) Accuracy [%] (validation standard 2xLLOV)	Short-time stability (24h, 4°C, without daylight) Accuracy [%] (validation standard 2xLLOV)	Short-time stability (24h, RT, with daylight) Accuracy [%] (validation standard 2xLLOV)	Short-time stability (24h, RT, without daylight) Accuracy [%] (validation standard 2xLLOV)	Short-time stability (1h, 56°C) Accuracy [%] (validation standard LLOV)	Short-time stability (24h, 4°C, without daylight) Accuracy [%] (validation standard LLOV)	Short-time stability (24h, RT, with daylight) Accuracy [%] (validation standard LLOV)	Short-time stability (24h, RT, without daylight) Accuracy [%] (validation standard LLOV)	Short-time stability (1h, 56°C) Accuracy [%] (validation standard MOV)	Short-time stability (24h, 4°C, without daylight) Accuracy [%] (validation standard MOV)	Short-time stability (24h, RT, with daylight) Accuracy [%] (validation standard MOV)	Short-time stability (24h, RT, without daylight) Accuracy [%] (validation standard MOV)	Short-time stability (1h, 56°C) Accuracy [%] (validation standard ULOV)	Short-time stability (24h, 4°C, without daylight) Accuracy [%] (validation standard ULOV)	Short-time stability (24h, RT, with daylight) Accuracy [%] (validation standard ULOV)	Short-time stability (24h, RT, without daylight) Accuracy [%] (validation standard ULOV)	light sensitivity (acceptance limit <85%)
Nc1cccc2c1C(=O)N(C1CCC(=O)NC1=O)C2=O (stereo not drawn) [Pomalidomide]	21.3	94.1	51.2	51.3	38.4	92.5	42.4	42.6	20.6	96.7	51.3	51.2	16.9	88.6	43.6	43.8	–
O=c1[nH]c(=O)n([C@H]2C[C@H](O)[C@@H](CO)O2)cc1C(F)(F)F [Trifluridine]	-6.6	103.5	72.7	76.2	-89.2	83.6	45.6	36.1	28.1	96.3	78.0	75.3	23.2	85.5	66.9	67.3	–
O=C(c1ccc(F)c(F)c1Nc1ccc(I)cc1F)N1CC(O)([C@@H]2CCCCN2)C1 [Cobimetinib]	51.4	100.9	98.3	98.8	42.7	99.9	98.6	99.8	47.6	102.5	102.4	103.8	41.3	97.5	103.8	100.3	–
CNC(=O)c1cc(Oc2ccc(NC(=O)Nc3ccc(Cl)c(C(F)(F)F)c3)c(F)c2)ccn1 [Regorafenib]	41.3	95.0	89.4	83.8	32.3	83.3	88.6	80.3	39.7	104.6	90.2	90.8	35.4	101.4	89.0	87.8	–
CCC1=C[C@@H]2CN(C1)Cc1c([nH]c3ccccc13)[C@@](C(=O)OC)(c1cc3c(cc1OC)N(C)[C@H]1[C@@](O)(C(=O)OC)[C@H](OC(C)=O)[C@]4(CC)C=CCN5CC[C@]31[C@@H]54)C2 [Vinorelbine]	42.2	88.7	78.0	79.3	67.0	96.3	98.2	96.4	37.2	93.6	66.8	70.0	29.6	91.1	62.0	57.4	–
Cc1cn(-c2cc(NC(=O)c3ccc(C)c(Nc4nccc(-c5cccnc5)n4)c3)cc(C(F)(F)F)c2)cn1 [Nilotinib]	47.8	101.2	107.8	108.6	28.5	96.7	94.9	96.7	52.5	100.3	110.2	114.5	44.6	97.1	108.0	110.3	–
C[C@]12CC[C@H](O)CC1=CC[C@@H]1[C@@H]2CC[C@]2(C)C(c3cccnc3)=CC[C@@H]12 [Abiraterone]	46.5	96.9	101.7	101.5	49.9	104.6	105.6	105.2	40.7	97.4	103.1	101.1	34.9	95.4	103.3	102.0	–
O=C1CCC(N2C(=O)c3ccccc3C2=O)C(=O)N1 (stereo not drawn) [Thalidomide]	–	64.9	–	–	–	69.3	–	–	–	60.7	–	–	–	55.2	1.7	1.7	–
CN(C)C(=O)c1cc2cnc(Nc3ccc(N4CCNCC4)cn3)nc2n1C1CCCC1 [Ribociclib]	49.7	98.0	94.2	92.7	30.6	87.3	79.3	81.3	50.5	98.8	95.0	93.5	41.5	84.9	84.8	83.3	–
Cc1nc(Nc2ncc(C(=O)Nc3c(C)cccc3Cl)s2)cc(N2CCN(CCO)CC2)n1 [Dasatinib]	47.7	102.2	90.1	98.3	65.9	124.4	90.7	115.9	46.4	100.1	91.7	90.0	38.9	96.7	99.4	93.1	–
COc1cc2c(Nc3ccc(Br)cc3F)ncnc2cc1OCC1CCN(C)CC1 [Vandetanib]	44.7	99.4	97.2	94.8	24.9	91.7	81.4	80.3	49.3	101.6	95.8	95.1	41.3	88.8	83.1	83.3	–
Cc1ccc(Nc2nccc(N(C)c3ccc4c(C)n(C)nc4c3)n2)cc1S(N)(=O)=O [Pazopanib]	–	101.2	103.3	104.3	–	104.1	100.2	105.8	–	97.8	99.1	101.2	–	97.1	102.6	99.1	–
CC(C)(C)c1nc(-c2cccc(NS(=O)(=O)c3c(F)cccc3F)c2F)c(-c2ccnc(N)n2)s1 [Dabrafenib]	46.2	99.6	98.0	107.6	42.8	112.7	97.0	108.2	42.4	100.0	97.7	99.3	35.6	94.0	100.2	99.7	no losses of concentrations below the acceptance limit
